According to ChEMBL document CHEMBL1201862, “PubChem BioAssay data set” (2004):
The source made the active and inactive calls.

What was measured:
[1] = molecular target: T1, DNA repair protein RAD52 homolog (Homo sapiens, UniProt P43351); format: functional, biochemical
T1 sequence (P43351 whole entry): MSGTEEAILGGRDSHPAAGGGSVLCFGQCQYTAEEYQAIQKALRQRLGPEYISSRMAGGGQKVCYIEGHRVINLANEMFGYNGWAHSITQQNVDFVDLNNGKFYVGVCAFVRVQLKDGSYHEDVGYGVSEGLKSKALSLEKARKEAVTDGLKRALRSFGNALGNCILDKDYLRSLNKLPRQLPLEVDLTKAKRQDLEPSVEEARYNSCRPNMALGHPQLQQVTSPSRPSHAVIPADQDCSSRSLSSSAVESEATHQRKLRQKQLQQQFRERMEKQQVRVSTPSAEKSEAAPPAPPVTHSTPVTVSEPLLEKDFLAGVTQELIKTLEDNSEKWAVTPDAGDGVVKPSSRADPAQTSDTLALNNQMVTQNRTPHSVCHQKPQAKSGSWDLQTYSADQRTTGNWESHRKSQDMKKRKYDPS

[2] = Fluorescence-based cell-based high throughput dose response assay for inhibitors of the interaction of nucleotide-binding oligomerization domain containing 2 (NOD2) and the receptor-interacting serine-threonine kinase 2 (RIPK2).; format: functional; details: Homo sapiens
[3] = Shn3 3'UTR reporter inhibitors, dose response, cell-based, Clone20 osteoblasts, firefly luciferase, cherry-picked (AID 624132); format: functional;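 note: firefly luciferase luminescence from reporter carrying the Shn3 3'UTR in osteoblasts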
[4] = Luminescence Cell-Based Dose Retest to Confirm Inhibitors of Cancer Stem Cells. [Related pubchem assays (depositor defined):AID2717, AID2721]; format: functional; details: Homo sapiens
[5] = control 3'UTR Renilla luciferase suppression, dose response, counter-screen for Shn3 inhibitor project, cell-based, Clone20-Shn3RL, cherry-picked (AID 624133); format: functional
[6] = HepG2 cell cytotoxicity, dose response, cytotoxicity control for Shn3 inhibitor project, CellTiter-Glo, cherry-picked (AID 624134); format: functional, cell-based
[7] = molecular target: T2, Orexin/Hypocretin receptor type 1 (Homo sapiens, UniProt O43613); assay: Fluorescence-based cell-based high throughput dose response assay for antagonists of the orexin 1 receptor (OX1R; HCRTR1). [Related pubchem assays (depositor defined):AID434989, AID435008, AID463079, AID485270, AID492963, AID492964, AID492965, AID493232, AID504717, AID504718]; format: functional
T2 sequence (O43613 whole entry): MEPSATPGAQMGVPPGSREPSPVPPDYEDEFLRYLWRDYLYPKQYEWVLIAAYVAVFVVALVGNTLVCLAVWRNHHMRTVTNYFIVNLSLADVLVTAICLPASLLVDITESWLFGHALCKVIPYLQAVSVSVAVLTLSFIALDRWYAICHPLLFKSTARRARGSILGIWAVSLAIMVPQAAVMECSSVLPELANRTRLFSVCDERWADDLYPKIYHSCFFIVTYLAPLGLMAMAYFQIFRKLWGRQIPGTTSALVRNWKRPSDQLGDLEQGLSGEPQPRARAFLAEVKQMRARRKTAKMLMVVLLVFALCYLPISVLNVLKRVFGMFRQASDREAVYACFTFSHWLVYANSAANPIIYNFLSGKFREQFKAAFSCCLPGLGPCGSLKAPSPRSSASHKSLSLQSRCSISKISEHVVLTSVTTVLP

[8] = molecular target: T2, Orexin/Hypocretin receptor type 1; assay: Homogeneous Time Resolved Fluorescence (HTRF)-based cell-based high throughput dose response assay for antagonists of the orexin 1 receptor (OX1R; HCRTR1). [Related pubchem assays (depositor defined):AID434989, AID435008, AID463079, AID485270, AID492963, AID492964, AID492965, AID493232, AID504717, AID504718]; format: functional
CHO-K1 = assay: Counterscreen for antagonists of the orexin 1 receptor (OX1R; HCRTR1): Homogeneous time resolved fluorescence (HTRF)-based cell-based dose response assay to identify antagonists of the parental CHO-K1 cell line. [Related pubchem assays (depositor defined):AID434989, AID435008, AID463079, AID485270, AID492963, AID492964, AID492965, AID493232, AID504699, AID504701]; format: functional; details: Cricetulus griseus;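 note: potency for inhibition of ATP-stimulated IP1 production as antagonists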
Orexin receptor type 2 [9] = molecular target: T3, Orexin receptor type 2 (Homo sapiens, UniProt O43614); assay: Counterscreen assay for antagonists of the orexin 1 receptor (OX1R; HCRTR1): Homogeneous Time Resolved Fluorescence (HTRF)-based cell-based dose response assay for antagonists of the orexin 2 receptor (OX2R; HCRTR2), run by assay provider.; format: functional
T3 sequence (O43614 whole entry): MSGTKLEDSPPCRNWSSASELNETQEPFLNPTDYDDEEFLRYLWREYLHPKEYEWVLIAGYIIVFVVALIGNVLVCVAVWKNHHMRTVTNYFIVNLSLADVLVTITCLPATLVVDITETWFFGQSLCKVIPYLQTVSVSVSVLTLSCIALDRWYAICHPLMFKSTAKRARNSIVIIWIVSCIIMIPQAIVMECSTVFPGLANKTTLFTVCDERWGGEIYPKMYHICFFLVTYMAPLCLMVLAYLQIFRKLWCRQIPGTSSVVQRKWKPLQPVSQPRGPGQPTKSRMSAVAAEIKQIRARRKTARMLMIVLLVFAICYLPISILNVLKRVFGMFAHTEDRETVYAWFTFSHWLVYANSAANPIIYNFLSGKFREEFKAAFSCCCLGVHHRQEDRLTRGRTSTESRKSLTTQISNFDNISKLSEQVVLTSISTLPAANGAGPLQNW

[10] = Counterscreen for antagonists of the orexin 1 receptor (OX1R; HCRTR1): Fluorescence-based cell-based high throughput dose response assay to identify antagonists of the parental CHO cell line. [Related pubchem assays (depositor defined):AID434989, AID435008, AID463079, AID485270, AID492963, AID492964, AID492965, AID493232, AID504699, AID504701]; format: functional
Orexin receptor type 2 [11] = molecular target: T3, Orexin receptor type 2; assay: Counterscreen assay for antagonists of the orexin 1 receptor (OX1R; HCRTR1): Fluorescence-based cell-based dose response assay for antagonists of the orexin 2 receptor (OX2R; HCRTR2), run by assay provider.; format: functional
H4 = assay: Luminescence Cell-Based Dose Response HTS to Identify Activators of 5'UTR Stem-Loop Driven Prion Protein mRNA Translation in H4 Neuroglioblastoma Cells. [Related pubchem assays: 1829 (Project Summary), 1814 (Primary HTS)]; format: functional; details: Homo sapiens
cells [12] = format: functional, cell-based
[13] = molecular target: T4, Nuclear receptor subfamily 0 group B member 1 (Homo sapiens, UniProt P51843); format: functional, cell-based;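 note: HEK293T cells transfected with SF-1 and DAX-1 plus StAR promoter luciferase reporter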
T4 sequence (P51843 whole entry): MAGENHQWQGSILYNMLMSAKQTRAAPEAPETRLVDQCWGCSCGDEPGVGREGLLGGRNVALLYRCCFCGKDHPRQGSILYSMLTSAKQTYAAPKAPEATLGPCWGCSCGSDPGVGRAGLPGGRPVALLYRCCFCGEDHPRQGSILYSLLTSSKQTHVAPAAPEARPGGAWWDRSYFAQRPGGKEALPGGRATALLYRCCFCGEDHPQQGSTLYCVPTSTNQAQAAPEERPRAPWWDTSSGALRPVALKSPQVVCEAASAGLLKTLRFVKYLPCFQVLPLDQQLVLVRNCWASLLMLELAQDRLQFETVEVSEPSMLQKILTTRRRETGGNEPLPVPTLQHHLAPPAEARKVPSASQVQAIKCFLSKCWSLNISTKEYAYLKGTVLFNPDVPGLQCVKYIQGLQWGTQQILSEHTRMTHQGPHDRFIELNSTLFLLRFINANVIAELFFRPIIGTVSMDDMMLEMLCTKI

cells [14] = format: functional
[15] = NIH-3T3 fibroblast cytotoxicity, dose response, cytotoxicity control, cell-based, fluorescence, Alamar Blue, secondary assay (AID 2327); format: functional;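 note: NIH-3T3 mouse fibroblasts cultured with fluconazole at 8 µg/mL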
[16] = molecular target: T5, Serine/threonine-protein phosphatase (Candida dubliniensis (strain CD36 / CBS 7987 / NCPF 3949 / NRRLY-17841) (Yeast), UniProt B9W6M3); assay: calcineurin pathway inhibitors in yeast reporter, dose response, S. cerevisiae, CDRE-lacZ, luminescence, secondary (AID 2388); format: functional, cell-based;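 note: yeast reporter cells carrying a calcineurin-responsive lacZ construct stimulated with calcium chloride; luminescent beta-galactosidase reporter signal in whole cells rather than isolated phosphatase activity; potency for inhibition where a drop in reporter signal means calcineurin blockade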
T5 sequence (B9W6M3 whole entry): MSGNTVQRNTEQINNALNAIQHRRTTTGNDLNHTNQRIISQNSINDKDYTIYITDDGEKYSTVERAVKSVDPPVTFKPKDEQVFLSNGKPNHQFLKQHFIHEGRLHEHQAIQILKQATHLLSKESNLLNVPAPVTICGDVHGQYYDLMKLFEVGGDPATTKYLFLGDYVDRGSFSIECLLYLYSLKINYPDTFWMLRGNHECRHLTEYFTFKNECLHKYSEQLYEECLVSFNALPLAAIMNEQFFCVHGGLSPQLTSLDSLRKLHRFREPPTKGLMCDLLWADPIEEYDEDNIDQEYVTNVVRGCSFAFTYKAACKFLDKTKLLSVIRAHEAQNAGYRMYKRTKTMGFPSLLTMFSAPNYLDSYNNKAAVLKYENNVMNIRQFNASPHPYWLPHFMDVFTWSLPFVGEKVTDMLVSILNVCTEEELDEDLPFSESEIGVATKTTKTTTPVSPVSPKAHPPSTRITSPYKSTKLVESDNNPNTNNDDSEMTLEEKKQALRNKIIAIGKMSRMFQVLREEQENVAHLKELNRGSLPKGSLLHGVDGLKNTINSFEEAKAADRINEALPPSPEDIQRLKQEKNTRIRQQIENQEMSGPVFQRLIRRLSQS

Streptococcus = assay: Group A Streptococcus viability loss, dose response, counter-screen for streptokinase expression inhibitor project, luminescence, BacTiterGlo (AID 1915); format: functional, organism-based;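 note: potency for reduction of bacterial viability or growth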
[17] = molecular target: ATP-dependent molecular chaperone HSP82 (Candida albicans (strain WO-1) (Yeast), UniProt C4YTQ8); assay: loss of DOC-induced GRE-beta-galactosidase reporter signal, dose response, Hsp90 inhibitor project, S. cerevisiae, luminescence (AID 2400); format: functional, cell-based;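 note: beta-galactosidase luminescence from glucocorticoid response element reporter as proxy for Hsp90 function; inhibitor potency where signal loss means Hsp90 inhibition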
[18] = C. albicans growth with fluconazole, confirmation, fluorescence, retest (AID 2467); format: functional, cell-based
[19] = tested on: Streptococcus sp. 'group A'; assay: growth inhibition of control SK(-) GAS strain, dose response, counter-screen for streptokinase expression inhibitor project, luminescence, kanamycin, BacTiterGlo, confirmation (AID 1900); format: functional, organism-based
[20] = inhibitors of SNCA 5'UTR-driven reporter translation, confirmation, H4 neuroglioma cells, luminescence (AID 1988); format: functional, cell-based
[21] = Luminescence Cell-Based Dose Response HTS to Identify Inhibitors of 5'UTR Stem-Loop Driven Prion Protein mRNA Translation in H4 Neuroglioblastoma Cells. [Related pubchem assays: 1827 (Project Summary), 1813 (Primary HTS)]; format: functional
[22] = inhibitors of firefly luciferase expression or activity, dose response, H4 neuroglioma cells, luminescence (AID 1990); format: functional, cell-based

Chain of ATP-dependent molecular chaperone HSP82 (C4YTQ8 whole entry): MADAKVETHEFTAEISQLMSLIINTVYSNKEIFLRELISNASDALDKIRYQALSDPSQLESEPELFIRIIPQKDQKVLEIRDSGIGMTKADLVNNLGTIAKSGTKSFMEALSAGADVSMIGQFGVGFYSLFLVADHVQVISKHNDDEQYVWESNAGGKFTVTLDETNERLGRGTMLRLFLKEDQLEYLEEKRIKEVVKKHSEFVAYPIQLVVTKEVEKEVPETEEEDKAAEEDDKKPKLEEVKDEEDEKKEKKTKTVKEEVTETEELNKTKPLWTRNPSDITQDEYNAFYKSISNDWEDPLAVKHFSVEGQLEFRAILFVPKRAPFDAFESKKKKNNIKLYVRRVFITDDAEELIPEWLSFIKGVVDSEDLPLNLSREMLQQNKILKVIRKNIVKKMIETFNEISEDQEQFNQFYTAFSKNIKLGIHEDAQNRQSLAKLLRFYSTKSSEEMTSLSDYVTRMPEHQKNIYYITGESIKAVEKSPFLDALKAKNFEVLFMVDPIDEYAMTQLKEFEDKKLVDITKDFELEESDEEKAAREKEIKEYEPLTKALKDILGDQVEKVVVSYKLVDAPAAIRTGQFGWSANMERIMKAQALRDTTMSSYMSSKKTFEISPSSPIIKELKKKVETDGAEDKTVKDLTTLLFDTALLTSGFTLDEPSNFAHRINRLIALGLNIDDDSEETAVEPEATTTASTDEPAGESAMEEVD

SMILES: CCOC(=O)c1c(C)n(-c2ccc(C)cc2)c2ccc(OCC(O)CN3CCN(C)CC3)cc12 (stereo unspecified)
- AC50 [1]: 6.54 µM (active)

SMILES: O=[N+]([O-])/C=C/c1cn(Cc2ccc(Cl)cc2)c2ccccc12
- IC50 [2]: 6.98 µM (active)
- AC50 [3]: 8.32 µM (active)
- AC50 [4]: 1.88 µM (active)
- AC50 [5]: 21.2 µM (active)
- AC50 [6]: 5.81 µM (active)

SMILES: Cc1cc(C(=O)NCc2cccc(Cl)c2)c2ccccc2n1
- IC50 [7]: 12.6 µM (inactive)
- IC50 [8]: 0.976 µM (active)
- IC50 (CHO-K1): > 66.2 µM (inactive)
- IC50 (Orexin receptor type 2 [9]): 7.59 µM (active)
- IC50 [10]: > 49.7 µM (inactive)
- IC50 (Orexin receptor type 2 [11]): > 88.8 µM (inactive)

SMILES: Nc1nc(-c2sc3nc4c(cc3c2N)CCCC4)nc(N2CCOCC2)n1
- IC50 [7]: 5.52 µM (active)
- IC50 [8]: 0.797 µM (active)
- IC50 (CHO-K1): > 66.2 µM (inactive)
- IC50 (Orexin receptor type 2 [9]): > 50 µM (inactive)
- IC50 [10]: > 49.8 µM (inactive)
- IC50 (Orexin receptor type 2 [11]): > 88.8 µM (inactive)
- EC50 (H4): > 120 µM (not active)

SMILES: CCC1(O)CC2CN(CCc3c([nH]c4ccccc34)C(C(=O)OC)(c3cc4c(cc3OC)N(C=O)C3C(O)(C(=O)OC)C(OC(C)=O)C5(CC)C=CCN6CCC43C65)C2)C1 (stereo unspecified)
- IC50 (cells [12]): > 67.5 µM (inactive)
- IC50 [13]: 0.386 µM (active)

SMILES: COc1ccccc1C(=O)Nc1nc2cc3c(cc2s1)OCCO3
- IC50 [7]: 6.51 µM (active)
- IC50 [8]: 1.95 µM (active)
- IC50 (CHO-K1): > 66.2 µM (inactive)
- IC50 (Orexin receptor type 2 [9]): > 50 µM (inactive)
- IC50 [10]: > 49.8 µM (inactive)
- IC50 (Orexin receptor type 2 [11]): > 88.8 µM (inactive)

SMILES: CNc1nnc(SCC(=O)c2cc(C)n(C3CC3)c2C)s1
- IC50 (cells [12]): > 67.5 µM (inactive)
- IC50 [13]: > 67.5 µM (inactive)

SMILES: CCOC(=O)c1c(C)nc2c3ccccc3ccn12
- IC50 [7]: 32.9 µM (inactive)
- IC50 [8]: 3.62 µM (active)
- IC50 (CHO-K1): > 66.3 µM (inactive)
- IC50 (Orexin receptor type 2 [9]): 30 µM (inactive)
- IC50 (cells [14]): 37.3 µM (active)
- IC50 [10]: > 49.8 µM (inactive)
- IC50 (Orexin receptor type 2 [11]): > 88.8 µM (inactive)

SMILES: Cc1cccc(C(=O)CC(=O)c2cc(Cl)ccc2O)c1
- EC50 [15]: 34.3 µM (active)
- EC50 [16]: > 180 µM (inactive)
- EC50 (Streptococcus): 1.61 µM (active)
- EC50 [17]: 3.18 µM (active)
- EC50 [18]: 1.09 µM (active)
- EC50 [19]: 1.01 µM (active)
- EC50 [20]: 5.25 µM (active)
- EC50 [21]: 9.23 µM (active)
- EC50 [22]: 8.03 µM (active)

SMILES: CN(CCC#N)c1ccc(/C=C(\C#N)c2ccccn2)cc1
- IC50 (cells [12]): > 67.5 µM (inactive)
- IC50 [13]: > 0.834 µM (active)

SMILES: COc1ccc(C(=O)N2c3ccccc3C=CC2C#N)cc1 (stereo unspecified)
- EC50 [15]: > 160 µM (inconclusive)
- EC50 [16]: > 180 µM (inactive)
- EC50 [17]: > 150 µM (inactive)
- EC50 [18]: 0.186 µM (active)
